Measured values published in patent US8329685B1, “Enhancement of the action of anti-infective agents and of central and peripheral nervous system agents and transportation of nucleic acid substances” (priority 2001, dated 2012).

Tested on: M.Tb. drug resistant strain TV25
Format: cell-based, Mycobacterium tuberculosis

NNC(=O)c1ccncc1 [INH, Isoniazid]
additional effectiveness of INH in the presence of MZL: 41.5% | effect of INH alone (without MZL): no effect
